Experimental data taken from patent publication US9632034B2, “Fluorogenic and chromogenic substrate” (LI-COR, Inc., priority 2015, dated 2017).

Experiments:
[1] = molecular target: T1, HRP-conjugated secondary antibody (Erk protein in C32 cell lysates) (Armoracia rusticana, UniProt P00433); experiment: Western blot of Erk protein in C32 cell lysates, near-infrared chemifluorescence detection against chemiluminescent substrate; assay type: biochemical
T1 sequence (P00433 31-338): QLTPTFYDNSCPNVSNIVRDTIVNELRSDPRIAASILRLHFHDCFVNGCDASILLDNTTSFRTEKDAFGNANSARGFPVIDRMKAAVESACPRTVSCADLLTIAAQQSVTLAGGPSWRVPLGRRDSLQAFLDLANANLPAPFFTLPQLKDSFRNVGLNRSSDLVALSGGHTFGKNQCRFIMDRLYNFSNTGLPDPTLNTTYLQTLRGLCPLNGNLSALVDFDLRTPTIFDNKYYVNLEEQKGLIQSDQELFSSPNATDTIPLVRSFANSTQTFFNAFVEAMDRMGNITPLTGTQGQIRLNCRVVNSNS
Description: A series of tests were performed to determine the optimal concentration of PTA in the detection method. Western blot analysis was performed on cell lysates generated from the C32 cell line that expresses high levels of Erk protein. The lysates were processed according to standard western blotting protocols. Briefly, Erk protein was detected using a primary antibody against Erk (an anti-Erk monoclonal antibody) and an HRP-conjugated secondary antibody (goat anti-mouse IgG antibody). Different concentrations of the PTA substrate were compared by visualization of color formation and detection of protein bands. The limit of detection (LOD) was measured by chemifluorescence signal and compared to the LOD using Thermo Scientific™ SuperSignal™ West Femto Substrate. […] FIG. 5 illustrates the comparison and effect of PTA concentration on LOD of Erk protein in C32 cell lysates.
The exemplary formulation of the detection solution tested comprises two concentrated solutions: Solution A (a first part) and Solution B (a second part). […]
In this experiment Erk protein was detected in C32 cell lysates using a 1:1000 dilution of a monoclonal antibody directed to Erk. […] Near-infrared fluorescence from PTA treated blot was detected using the Odyssey® CLx system set at the 700 channel. Chemiluminescence from the control blot was detected using the Odyssey® Fc imaging system set at the chemiluminescence channel.

[2] = PTA solubility in water and in assay buffer with solubilizers (precipitate visualization, HPLC); assay type: physicochemical; details: for Appearance of solution: PTA in assay buffer (Tris buffer, pH 9.5) with the named solubilizer at the w/v concentration printed in the table; for Appearance of PTA solution after overnight storage at room temperature: PTA in assay buffer (Tris buffer, pH 9.5) with the named solubilizer
Description: Next, the solvent system for phenothiazine (PTA) was tested. […] The solubility of PTA with polymers was tested by precipitate visualization and by HPLC of fresh and stored samples. Table 1 provides a comparison of polymers that include PTA solubility in an assay buffer, such as Tris buffer, pH 9.5.

HRP-azine system = molecular target: T2, HRP-azine system (Armoracia rusticana, UniProt P00433); experiment: Optimisation of formulation components (radical enhancer, nucleophilic reagent, oxidant) on western blot; assay type: biochemical; details: for preferred concentration in working solution: by rate of visualization and/or number of colored bands on western blot, PTAS tested 2 to 30 mM, MORP 0 to 20 mM; for effect of oxidant on azine oxidization and formation of colored and fluorescent compounds: at certain concentrations, HRP-azine system
T2 sequence (P00433 31-338): T1 sequence (P00433 31-338)
Description: The optimal concentrations of the cation radical enhancer, nucleophilic reagent, solvent system and oxidant in the formulation were also tested. Water soluble azine, particularly 3-(10′-phenothiazinyl)propane-1-sulfonate (PTAS) was tested at various concentrations from 2 to 30 mM in a working solution. The effects were evaluated using the rate (speed) of visualization and the number of colored band on western blot. The preferred concentration of PTAS was 18 mM. Other water soluble and N-substituted PTA derivatives can also be used in place of PTAS or in combination thereof. The nucleophilic reagent serves as a co-substrate in the detection solution. The nucleophilic reagent can include five or six membered nitrogen heteroaromatic ring compounds. MORP at concentrations from 0 to 20 mM was tested in the formulation. Based on the number of colored bands detected, the preferred concentration was 15 mM MORP in the working solution.
Stable oxidants that are compatible with HRP-azine system are tested. Sodium perborate (NaBO3), Urea-H2O2 and stabilized H2O2 at certain concentrations accelerated azine oxidization and formation of colored and fluorescent compounds.

With `CN(C)c1ccc2c(c1)Sc1cc(N(C)C)ccc1N2C(=O)c1ccccc1` [BLMB] the “enhancement in sensitivity compared to SuperSignal West Femto Chemiluminescence Substrate” value ([1]; BLMB formulation with dextran sulfate, DMAP, HNA, citric buffer, NaBO3, final pH 5.0) was 2˜4 fold.

With `OCCO` [Ethylene Glycol (EG), Ethylene Glycol] the Appearance of solution [2] was “cloudy”, the “Appearance of PTA solution after overnight storage at room temperature” value [2] was “Precipitation,” and the “PTA concentration given with appearance of PTA solution after overnight storage at room temperature” value ([2]; PTA in assay buffer with the named solubilizer) was 0.5 mM.

In the case of `c1cc(N2CCOCC2)ccn1` [MORP, 4-morpholinopyridine], the “preferred concentration in working solution” value (HRP-azine system) is reported as 15 mM.

In the case of `c1ccc2c(c1)Nc1ccccc1S2` [PTA, 10H-phenothiazine], the “PTA concentration with the highest sensitivity in working solution” value ([1]; LOD of Erk protein by chemifluorescence at 700 nm, 0.65, 0.35, 0.15 mM PTA compared) is reported as 0.35 mM, the Appearance of solution [2] is reported as “cloudy” and the “Appearance of PTA solution after overnight storage at room temperature” value [2] is reported as “Precipitate,”. The “PTA concentration given with appearance of PTA solution after overnight storage at room temperature” value ([2]; assay buffer, no solubilizer added) was 0.00015 mM.

In the case of `O=S(=O)([O-])CCCN1c2ccccc2Sc2ccccc21.[Na+]` [PTAS, sodium 3-(phenothiazine-10-yl)propane-1-sulfonate], the “preferred concentration in working solution” value (HRP-azine system) is reported as 18 mM.

For `NC(N)=O.OO` [Urea-H2O2, urea-hydrogen peroxide], the “effect of oxidant on azine oxidization and formation of colored and fluorescent compounds” value (“effect of oxidant” for short) (HRP-azine system) was “accelerated”.

With `OO` [stabilized H2O2, hydrogen peroxide] the “effect of oxidant” value (HRP-azine system) was “accelerated”.

In the case of Sodium perborate, the “effect of oxidant” value (HRP-azine system) is reported as “accelerated”.
